Active and inactive are the calls of the source. The rule behind the calls is not given here.
Legend:
[1] = target: T1, P2X purinoceptor 7 (Homo sapiens) (UniProt Q99572); experiment: Antagonist activity at human P2X7 receptor expressed in HEK293 cells assessed as inhibition of ATP-induced receptor pore formation at 1 uM by propidium iodide dye uptake based fluorescence analysis; type: cell-based; details: filed as antagonist
T1 sequence (whole entry): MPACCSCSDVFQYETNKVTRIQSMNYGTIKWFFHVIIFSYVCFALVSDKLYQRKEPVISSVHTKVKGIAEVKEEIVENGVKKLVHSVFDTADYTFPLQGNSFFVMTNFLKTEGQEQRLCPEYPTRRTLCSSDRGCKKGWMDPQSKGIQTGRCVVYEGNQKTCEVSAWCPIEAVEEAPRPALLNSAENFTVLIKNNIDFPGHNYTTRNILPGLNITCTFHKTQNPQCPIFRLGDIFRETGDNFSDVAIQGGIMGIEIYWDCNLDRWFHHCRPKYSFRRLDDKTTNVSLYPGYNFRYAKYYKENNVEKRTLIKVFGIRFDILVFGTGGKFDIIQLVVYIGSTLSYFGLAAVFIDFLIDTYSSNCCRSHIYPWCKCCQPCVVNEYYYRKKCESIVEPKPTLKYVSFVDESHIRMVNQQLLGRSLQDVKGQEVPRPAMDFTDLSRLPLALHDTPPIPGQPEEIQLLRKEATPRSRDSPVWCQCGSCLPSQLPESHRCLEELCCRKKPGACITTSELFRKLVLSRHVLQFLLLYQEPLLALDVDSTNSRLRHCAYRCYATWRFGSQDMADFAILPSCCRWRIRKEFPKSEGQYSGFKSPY

[2] = target: T2, P2X purinoceptor 7 (Mus musculus) (UniProt Q9Z1M0); experiment: Antagonist activity at mouse P2X7 receptor expressed in HEK293 cells assessed as inhibition of ATP-induced receptor pore formation at 1 uM by propidium iodide dye uptake based fluorescence analysis; type: cell-based; details: filed as antagonist
T2 sequence (whole entry): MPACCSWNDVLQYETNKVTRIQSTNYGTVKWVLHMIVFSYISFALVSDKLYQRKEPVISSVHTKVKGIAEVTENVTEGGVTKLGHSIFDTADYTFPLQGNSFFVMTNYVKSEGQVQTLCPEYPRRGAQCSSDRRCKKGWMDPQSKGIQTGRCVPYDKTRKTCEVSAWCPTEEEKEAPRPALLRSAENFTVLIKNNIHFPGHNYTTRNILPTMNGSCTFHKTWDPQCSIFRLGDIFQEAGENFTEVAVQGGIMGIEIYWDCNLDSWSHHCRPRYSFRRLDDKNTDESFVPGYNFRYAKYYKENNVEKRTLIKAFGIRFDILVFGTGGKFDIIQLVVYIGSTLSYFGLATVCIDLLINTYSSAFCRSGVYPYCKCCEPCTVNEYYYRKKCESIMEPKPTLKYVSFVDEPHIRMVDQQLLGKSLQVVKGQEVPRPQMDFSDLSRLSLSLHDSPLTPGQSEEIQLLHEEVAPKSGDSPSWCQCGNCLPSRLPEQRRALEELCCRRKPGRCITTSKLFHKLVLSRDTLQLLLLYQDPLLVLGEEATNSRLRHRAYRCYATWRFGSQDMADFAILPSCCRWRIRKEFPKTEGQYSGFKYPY

[3] = target: T1, P2X purinoceptor 7 (Homo sapiens); experiment: Antagonist activity at human P2X7 receptor expressed in HEK293 cells assessed as inhibition of ATP-induced receptor pore formation at 200 nM by propidium iodide dye uptake based fluorescence analysis; type: cell-based; details: filed as antagonist
[4] = target: T2, P2X purinoceptor 7 (Mus musculus); experiment: Antagonist activity at mouse P2X7 receptor expressed in HEK293 cells assessed as inhibition of ATP-induced receptor pore formation at 200 nM by propidium iodide dye uptake based fluorescence analysis; type: cell-based; details: filed as antagonist
[5] = target: T3, P2X purinoceptor 7 (Homo sapiens, UniProt Q99572); experiment: Antagonist activity at human P2X7 receptor expressed in HEK293 cells assessed as inhibition of ATP-induced receptor pore formation by propidium iodide dye uptake based fluorescence analysis; type: cell-based
T3 sequence (Q99572 whole entry): T1 sequence (whole entry)

[6] = target: T4, P2X purinoceptor 7 (Mus musculus, UniProt Q9Z1M0); experiment: Antagonist activity at mouse P2X7 receptor expressed in HEK293 cells assessed as inhibition of ATP-induced receptor pore formation by propidium iodide dye uptake based fluorescence analysis; type: cell-based
T4 sequence (Q9Z1M0 whole entry): T2 sequence (whole entry)

[7] = Intrinsic clearance in human liver microsomes; type: ADME, Microsome; details: read-out: CLH
[8] = Half life in human liver microsomes; type: ADME, Microsome
[9] = Intrinsic clearance in mouse liver microsomes; type: ADME, Microsome; details: read-out: CLH
[10] = Half life in mouse liver microsomes; type: ADME, Microsome
[11] = tested on: HEK293; experiment: Cytotoxicity against human HEK293 cells transfected with human P2X7 receptor assessed as effect on cell viability at 1 to 4 uM incubated for 2 hrs by CCK8 assay; type: toxicity, cell-based; details: hek293, 2 h, dose 1-4 µM
[12] = tested on: HEK293; experiment: Cytotoxicity against human HEK293 cells transfected with mouse P2X7 receptor assessed as effect on cell viability at 1 to 4 uM incubated for 2 hrs by CCK8 assay; type: toxicity, cell-based; details: hek293, 2 h, dose 1-4 µM
[13] = target: T3, P2X purinoceptor 7; experiment: Antagonist activity at P2X7 receptor in human THP-1 cells assessed as inhibition of ATP-induced IL-1beta secretion pretreated with LPS for 3 hrs followed by incubation with compound for 40 mins followed by treatment with ATP for 1 hr by ELISA; type: cell-based
[14] = tested on: THP-1; experiment: Cytotoxicity against human THP-1 cells assessed as effect on cell viability at 1 to 4 uM incubated for 2 hrs by CCK8 assay; type: toxicity, cell-based; details: thp-1, 2 h, dose 1-4 µM
[15] = AUC(0 to t) in BALB/c mouse at 10 mg/kg, iv measured for 24 hrs by LC-MS/MS analysis; type: ADME, organism-based; set-up: time 24 hrs, dose 10 mg/kg, route iv; details: in vivo
[16] = AUC(0 to t) in BALB/c mouse at 10 mg/kg, po measured for 24 hrs by LC-MS/MS analysis; type: ADME, organism-based; set-up: time 24 hrs, dose 10 mg/kg, route po; details: in vivo
[17] = Clearance in BALB/c mouse at 10 mg/kg, iv measured for 24 hrs by LC-MS/MS analysis; type: ADME, organism-based; details: in vivo
[18] = Clearance in BALB/c mouse at 10 mg/kg, po measured for 24 hrs by LC-MS/MS analysis; type: ADME, organism-based; details: in vivo
[19] = Cmax in BALB/c mouse at 10 mg/kg, iv measured for 24 hrs by LC-MS/MS analysis; type: ADME, organism-based; set-up: time 24 hrs, dose 10 mg/kg, route iv; details: in vivo
[20] = Cmax in BALB/c mouse at 10 mg/kg, po measured for 24 hrs by LC-MS/MS analysis; type: ADME, organism-based; set-up: time 24 hrs, dose 10 mg/kg, route po; details: in vivo
[21] = Half life in BALB/c mouse at 10 mg/kg, iv measured for 24 hrs by LC-MS/MS analysis; type: ADME, organism-based; details: in vivo
[22] = Half life in BALB/c mouse at 10 mg/kg, po measured for 24 hrs by LC-MS/MS analysis; type: ADME, organism-based; details: in vivo
[23] = Tmax in BALB/c mouse at 10 mg/kg, iv measured for 24 hrs by LC-MS/MS analysis; type: ADME, organism-based; details: in vivo
[24] = Tmax in BALB/c mouse at 10 mg/kg, po measured for 24 hrs by LC-MS/MS analysis; type: ADME, organism-based; details: in vivo
[25] = Oral bioavailability in BALB/c mouse at 10 mg/kg measured for 24 hrs by LC-MS/MS analysis; type: ADME, organism-based; details: in vivo
[26] = AUC(0 to t) in BALB/c mouse at 10 mg/kg, ip measured for 24 hrs by LC-MS/MS analysis; type: ADME, organism-based; set-up: dose 10 mg/kg, time 24 hrs, route ip; details: in vivo
[27] = Clearance in BALB/c mouse at 10 mg/kg, ip measured for 24 hrs by LC-MS/MS analysis; type: ADME, organism-based; details: in vivo
[28] = Cmax in BALB/c mouse at 10 mg/kg, ip measured for 24 hrs by LC-MS/MS analysis; type: ADME, organism-based; set-up: dose 10 mg/kg, time 24 hrs, route ip; details: in vivo
[29] = Half life in BALB/c mouse at 10 mg/kg, ip measured for 24 hrs by LC-MS/MS analysis; type: ADME, organism-based; details: in vivo
[30] = Tmax in BALB/c mouse at 10 mg/kg, ip measured for 24 hrs by LC-MS/MS analysis; type: ADME, organism-based; details: in vivo
[31] = tested on: Mus musculus; experiment: Reno-protective activity against LPS-induced acute kidney injury C57BL/6J mouse model assessed as decrease in serum […] level at 10 mg/kg, ip administered twice at 30 mins prior to LPS challenge and 8 hrs post-LPS challenge and measured at 16 hrs post-LPS challenge; type: functional, organism-based; details: time 16.5 hrs
[32] = tested on: Mus musculus; experiment: Reno-protective activity against LPS-induced acute kidney injury C57BL/6J mouse model assessed as decrease in BUN level at 10 mg/kg, ip administered twice at 30 mins prior to LPS challenge and 8 hrs post-LPS challenge and measured at 16 hrs post-LPS challenge; type: functional, organism-based; details: time 16.5 hrs
[33] = target: T3, P2X purinoceptor 7; experiment: Antagonist activity at human P2X7 receptor
[34] = target: T4, P2X purinoceptor 7; experiment: Antagonist activity at mouse P2X7 receptor

## CS(=O)(=O)c1ccc(-c2nc(C(=O)NCc3cn(-c4cc(Cl)ccn4)nn3)cs2)cc1
[1]
  inhibition: 68%
[2]
  inhibition: 99.5%
[3]
  inhibition: 42.1%
[4]
  inhibition: 105%
[5]
  IC50: 147 nM
[6]
  IC50: 36.2 nM
[7]
  CLint scaled: < 12 mL/min/kg
[8]
  half-life: > 2 h
[9]
  CLint scaled: < 12 mL/min/kg
[10]
  half-life: > 2 h
[11]
  Activity: Non-Toxic
[12]
  Activity: Non-Toxic
[13]
  IC50: 358 nM
[14]
  Activity: Non-Toxic
[15]
  AUC(0-t) at 24 h: 5080 ng·h/mL
[16]
  AUC(0-t) at 24 h: 4390 ng·h/mL
[17]
  clearance: 33.2 mL/min/kg
[18]
  CL/F: 40.8 mL/min/kg
[19]
  Cmax: 3040 ng/mL
[20]
  Cmax: 776 ng/mL
[21]
  half-life: 1.96 h
[22]
  half-life: 2.29 h
[23]
  Tmax: 4.8 min
[24]
  Tmax: 2 h
[25]
  bioavailability: 86.4%
[26]
  AUC(0-t) at 24 h: 9930 ng·h/mL
[27]
  CL/F: 16.9 mL/min/kg
[28]
  Cmax: 3650 ng/mL
[29]
  half-life: 3.94 h
[30]
  Tmax: 0.38 h
[31]
  Activity: Active
[32]
  Activity: Active

## O=C1C=C(n2cc(CCCl)nn2)C(=O)c2c(O)cccc21
[33]
  IC50: 1100 nM
[34]
  IC50: 1500 nM

## O=C(NCc1ccc(Cl)cc1Cl)C1CCC(=O)N1c1ccoc1 (stereo unspecified)
[33]
  IC50: 200 nM

## CC1=C(C(c2ccc(Cl)cc2)n2cc(COCc3ccco3)nn2)C(=O)c2ccccc2C1=O (stereo unspecified)
[33]
  IC50: 103 nM

Reference: ChEMBL document CHEMBL5360655, “Design, Synthesis, and Biological Evaluation of Novel P2X7 Receptor Antagonists for the Treatment of Septic Acute Kidney Injury” (J Med Chem, 2023)
